Experimental data published in the NIST ThermoML archive (doi:10.1021/je060271a).
± gives the expanded uncertainty stated by the source.

Settings: 283.15 K, Liquid, Vibrating tube method

CCCCC(=O)OCC(COC(=O)CCCC)(COC(=O)CCCC)COC(=O)CCCC [pentaerythritol tetrapentanoate]
Settings | mass density [kg/m3]
19295 kPa | 1038.2 ± 1.3
19319 kPa | 1038 ± 1.3
19343 kPa | 1038 ± 1.2
19372 kPa | 1038.2 ± 1.3
19397 kPa | 1038.1 ± 1.3
19420 kPa | 1038.2 ± 1.3
19450 kPa | 1038.1 ± 1.3
19475 kPa | 1038.1 ± 1.3
19501 kPa | 1038.1 ± 1.3
19525 kPa | 1038.2 ± 1.3
19550 kPa | 1038.2 ± 1.3
19579 kPa | 1038.2 ± 1.3
19603 kPa | 1038.3 ± 1.3
19633 kPa | 1038.3 ± 1.3
19658 kPa | 1038.2 ± 1.3
19682 kPa | 1038.1 ± 1.3
19707 kPa | 1038.3 ± 1.3
19738 kPa | 1038.4 ± 1.3
19763 kPa | 1038.4 ± 1.3
19788 kPa | 1038.3 ± 1.3
19818 kPa | 1038.4 ± 1.3
19844 kPa | 1038.3 ± 1.3
19874 kPa | 1038.4 ± 1.3
19900 kPa | 1038.3 ± 1.3
19925 kPa | 1038.5 ± 1.3
19951 kPa | 1038.5 ± 1.3
19982 kPa | 1038.5 ± 1.3
20007 kPa | 1038.5 ± 1.3
20033 kPa | 1038.5 ± 1.3
20064 kPa | 1038.4 ± 1.3
20090 kPa | 1038.5 ± 1.3
20121 kPa | 1038.5 ± 1.3
20147 kPa | 1038.5 ± 1.3
20174 kPa | 1038.5 ± 1.3
20200 kPa | 1038.6 ± 1.3
20232 kPa | 1038.5 ± 1.3
20259 kPa | 1038.7 ± 1.3
20286 kPa | 1038.5 ± 1.3
20318 kPa | 1038.6 ± 1.3
20344 kPa | 1038.6 ± 1.3
20376 kPa | 1038.6 ± 1.3
20403 kPa | 1038.6 ± 1.3
20430 kPa | 1038.8 ± 1.3
20462 kPa | 1038.6 ± 1.3
20490 kPa | 1038.7 ± 1.3
20517 kPa | 1038.7 ± 1.3
20550 kPa | 1038.8 ± 1.3
20578 kPa | 1038.8 ± 1.3
20607 kPa | 1038.8 ± 1.3
20634 kPa | 1038.9 ± 1.3
20667 kPa | 1038.8 ± 1.3
20695 kPa | 1038.8 ± 1.3
20723 kPa | 1038.8 ± 1.3
20756 kPa | 1038.9 ± 1.3
20784 kPa | 1038.9 ± 1.3
20812 kPa | 1038.9 ± 1.3
20846 kPa | 1038.9 ± 1.3
20875 kPa | 1039 ± 1.3
20904 kPa | 1038.9 ± 1.3
20938 kPa | 1038.9 ± 1.3
20966 kPa | 1038.9 ± 1.3
20995 kPa | 1039 ± 1.3
21029 kPa | 1039 ± 1.3
21058 kPa | 1039.1 ± 1.3
21086 kPa | 1039.2 ± 1.3
21116 kPa | 1039 ± 1.3
21151 kPa | 1039 ± 1.3
21180 kPa | 1039.1 ± 1.3
21215 kPa | 1039.1 ± 1.3
21244 kPa | 1039.2 ± 1.3
21274 kPa | 1039.1 ± 1.3
21303 kPa | 1039.1 ± 1.3
21340 kPa | 1039.1 ± 1.3
21369 kPa | 1039.2 ± 1.3
21399 kPa | 1039.1 ± 1.3
21435 kPa | 1039.2 ± 1.3
21464 kPa | 1039.2 ± 1.3
21495 kPa | 1039.3 ± 1.3
21531 kPa | 1039.4 ± 1.3
21561 kPa | 1039.3 ± 1.3
